“Also recorded” adds a separate entry of the source.
Experiments:
[1] = test system: HLA genes, Fas, KLRD1 expression in synovial sarcoma PDX tumors; settings: 400 mg/kg BID, PDX tumors harvested on day 35
Protocol: Tumor samples were collected at approximately 3 hours after the last dose from mice used in analysis for PK values and PD alterations. The tumor samples were stored using RNAlater (AM7020, Life technologies). Total RNA isolation and the reverse transcription were performed by RNeasy Mini Kit (74104, Qiagen) and High capacity cDNA Reverse Transcription kit (4368814, Life technologies) according to the manufacturer's instruction. The cDNA samples were used for real time-PCR as described above. The expression levels were adjusted to GAPDH and expressed as fold changes to vehicle control (FIG. 9). Additionally or alternatively, total RNAs were isolated from frozen tumor samples. The TruSeq™ RNA Sample Prep Kit (Illumina) was used to build cDNA library for paired-end sequencing on the Illumina HiSeq (details described in Illumina TruSeq RNA Sample Preparation Guide). […] Paired-end reads from ˜50M clusters per sample were generated using TruSeq SBS kit on the Illumina HiSeq.
Raw sequencing reads in FASTQ format was aligned to human genome hg19 as well as mouse genome mm10. Transcriptomic quantification was carried out with the RSEM v1.1.13 program, using USCS KnownGene transcriptome as reference. […]
The patient-derived xenograft (PDX) models CTG-0331 and CTG-0771 are low passage Champions TumorGraft™ models representing human synovial sarcoma. […] Tumor size was measured twice weekly. […]

[2] = test system: H3K27me3/total H3 in SW982 cells; assay: H3K27 methylation alterations by ELISA of extracted histones; type: cell-based, human; settings: SW982, 96 hours
Protocol: (§1) HS-SY-II and SW982 cells were treated with either DMSO or Compound A starting at 40 nmol/L and decreasing in fourfold dilutions for 96 hours. Cells were washed by ice cold PBS, harvested by cell scraper, and lysed with 100 μl of nuclear extraction buffer (10 mM Tris-HCl, 10 mM MgCl2, 25 mM KCl, 1% Triton X-100, 8.6% Sucrose, plus 1× Halt Protease inhibitor cocktail (1861281, Thermo Scientific). Nuclei were collected by centrifugation at 600 g for 5 minutes at 4° C. and washed once with ice cold PBS. Supernatant was removed and histones extracted for one hour with 100 μL of 0.4 N cold sulfuric acid. Extracts were clarified by centrifugation at 10,000 g for 10 minutes at 4° C. and transferred to a fresh microcentrifuge tube containing 1 mL of ice cold acetone. Histones were precipitated at −20° C. for overnight, pelleted by centrifugation at 10,000 g for 10 minutes and resuspended in 100 μl of water. Histones were quantified using the BCA protein assay (23225, Pierce). […] Subsequently, the developed colors in the wells were measured using a plate spectrophotometer (SpectraMax 250, Molecular Devices) at 450 nm (reference wavelength 650 nm). The H3K27me3 levels were adjusted to total histone H3, and expressed as fold changes to DMSO control.
(§2) The range of IC50 values (two independent experiments), shown in FIG. 6B, were determined by GraphPad Prism (GraphPad Software).

[3] = test system: H3K27me3/total H3 in HS-SY-II cells; assay: as above; type: cell-based, human; settings: 96 hours
Protocol: as §1, §2

HS-SY-II cells = assay: Adherent cell line long-term (14-day) proliferation assay, CellTiter-Glo; type: cell-based, human; settings: 14-day long-term proliferation assay
Protocol: (§3) 96-well plating for 7 day assay: For each adherent cell line, plated cells in a volume of 100 μL in 96-well plates, to be treated in triplicate, either in the evening (to treat with compound the following day) or in morning (to treat with compound in the evening), to allow cells to attach to plates before compound treatment.
(§4) 6-well plates to be split for 7-14 day assay: Plated 2 mL of cells at the correct density in each well of the 6-well plate. Calculated the correct density from the 96-well plate growth curve by multiplying the 96-well density by 30. The factor 30 came from growth area of the 6-well plate divided by the growth area of the 96-well plate (9.5 cm^2/0.32 cm^2=29.7, rounded up to 30), which corresponds to 30-fold more surface area in a 6-well vs. a 96-well plate.
(§5) Day 0: Treated with compound or DMSO by removing media and adding back either 100 μL (for 96-well plate) or 2 mL (for 6-well plate) media with the correct dilutions of compound/DMSO. Table 1 includes an example of 96-well plate map. Plates were incubated for 96 hours.
(§6) Read one 96-well plate with CellTiter-Glo® for a Day 0 reading (media change not necessary for this plate).
(§7) Day 4: Read one 96-well plate with CellTiter-Glo® for a Day 4 reading (media change not necessary for this plate before reading). Replaced media with fresh media containing compound on Day 4 in 96-well plates and 6-well plates.
(§8) Day 7: read final 96-well plate with CellTiter-Glo®.
(§9) Counted individual wells of 6-well plates, and replated cells to initial plating density in 96-well plates, as described above.
(§10) Repeated steps for Days 0-7 for Days 7-14 of the proliferation assay.
(§11) Particularly, approximately 12 hours before compound treatment, HS-SY-II or SW982 cells were plated at the density of 24,000 cells/well and 7,500 cells/well, respectively in 6-well plates. On day 0, cells were treated with either DMSO or compound starting at 10 μmol/L and decreasing in fourfold dilutions. On day 7, the cells in 6-well plates were trypsinized, counted by TC10 automated cell counter (Bio-Rad, Richmond, Calif.) and replated at the density of 800 cells/well and 250 cells/well for HS-SY-II and SW982, respectively in 96-well plates in triplicate. The cells were allowed to adhere to the plate overnight, and treated with either DMSO or compound as on Day 0. On days 0, 7, 11, and 14, cell viability was determined by CellTiter-Glo® Luminescent Cell Viability Assay (Promega) with EnVision 2103 Multilabel Reader (Perkin-Elmer, Wellesley, Mass.). Compound/media was changed with new one on Day 4 and 11. The ratios of the measured values on Days 7, 11, and 14 to that of day 7 were used to plot proliferation from day 7 to day 14, and to calculate the IC50 values on Day 14. […]

SW982 cells = assay: as above; type: cell-based, human; settings: SW982, 14-day long-term proliferation assay
Protocol: as §3, §4, §5, §6, §7, §8, §9, §10, §11

SMILES: CCN(c1cc(-c2ccc(CN3CCOCC3)cc2)cc(C(=O)NCc2c(C)cc(C)[nH]c2=O)c1C)C1CCOCC1 [Compound A]
- expression of HLA genes, Fas, and KLRD1 relative to vehicle [1]: increased
- ratio of H3K27me3/total H3 (ratio to control) [2]: decreased ratios
- ratio of H3K27me3/total H3 (ratio to control) [3]: decreased ratios
- sensitivity of cell proliferation (HS-SY-II cells): highly sensitive; also recorded: high sensitivity
- sensitivity of cell proliferation (SW982 cells): are not; also recorded: did not; also recorded: not sensitive

From US10946024B2, “Method for treating cancer” (Epizyme, Inc., priority 2014, dated 2021)
